Data published in US20230014907A1, “INHIBITORS OF APOL1 AND METHODS OF USING SAME” (Vertex Pharmaceuticals Incorporated, priority 2020, published 2023).

target: T1, G1 APOL1 (Homo sapiens, UniProt O14791, I384M/S342G); test: Acute APOL1 Thallium Assay with Inducible Stable Clones of HEK 293 Cells; type: cell-based; details: HEK 293 inducible stable clones, G1 APOL1; read-out: Thallium Assay (IC50)
T1 construct: expressed in transfected cells
T1 sequence (O14791 28-398 S342G/I384M): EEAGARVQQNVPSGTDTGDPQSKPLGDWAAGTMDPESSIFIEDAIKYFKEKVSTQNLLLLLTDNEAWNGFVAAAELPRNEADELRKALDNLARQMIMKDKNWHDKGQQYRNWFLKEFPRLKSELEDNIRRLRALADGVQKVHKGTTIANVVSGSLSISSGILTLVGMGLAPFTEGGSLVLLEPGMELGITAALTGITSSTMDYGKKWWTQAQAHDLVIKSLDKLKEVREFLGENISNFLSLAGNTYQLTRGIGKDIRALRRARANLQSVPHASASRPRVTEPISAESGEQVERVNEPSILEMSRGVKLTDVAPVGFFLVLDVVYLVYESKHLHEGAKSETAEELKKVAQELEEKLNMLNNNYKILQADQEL
Method in brief: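 Pore activity was read as the fluorescence increase from Tl+ entering cells loaded with an AM-ester thallium indicator dye. The cells were tetracycline-inducible HEK293 T-Rex expressing G1 APOL1 (clone DC3.25), induced when plated at 26000 per well and incubated at 37° C.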

| IC50 [nM] | SMILES |
| --- | --- |
| > 1000 | O=CNCCc1c(-c2ccc(F)cc2)[nH]c2c(F)cc(F)cc12 [Compound 419, N-[2-[5,7-difluoro-2-(4-fluorophenyl)-1H-indol-3-yl]ethyl]formamide] |
| < 250 | O=C(NC1(CO)CC1)OCCc1c(-c2ccc(F)cc2)[nH]c2c(F)cc(F)cc12 [Compound 438] |
| > 1000 | CC(C)(C)OC(=O)NC1(C(=O)NCCc2c(-c3ccc(F)cc3)[nH]c3c(F)cc(F)cc23)CCC1 [Compound 311] |
| > 1000 | O=C1N[C@H](C(=O)NCCc2c(-c3ccc(F)cc3)[nH]c3c(F)cc(F)cc23)CS1 [Compound 322] |
| > 1000 | CC(C)(C)OC(=O)NC1(CC(=O)NCCc2c(-c3ccc(F)cc3)[nH]c3c(F)cc(F)cc23)CC1 [Compound 312] |
| < 250 | CC(CO)(CO)NC(=O)OCCc1c(-c2ccc(F)cc2)[nH]c2c(F)cc(F)cc12 [Compound 434, 2-[5,7-difluoro-2-(4-fluorophenyl)-1H-indol-3-yl]ethyl N-[2-hydroxy-1-(hydroxymethyl)-1-methyl-ethyl]carbamate] |
| > 1000 | O=C(Cn1cncn1)NCCc1c(-c2ccc(F)cc2)[nH]c2c(F)cc(F)cc12 [Compound 386] |
| > 1000 | O=C(CC1CC(=O)NC(=O)C1)NCCc1c(-c2ccc(F)cc2)[nH]c2c(F)cc(F)cc12 [Compound 318] |
| < 250 | C[C@@H](CO)NC(=O)OCCc1c(-c2ccc(F)cc2)[nH]c2c(F)cc(F)cc12 [Compound 440] |
| 250 to 1000 | CCOCCNC(=O)OCCc1c(-c2ccc(F)cc2)[nH]c2c(F)cc(F)cc12 [Compound 455] |
| > 1000 | O=C1NC[C@@H](O)[C@@H]1NCCc1c(-c2ccc(F)cc2)[nH]c2c(F)cc(F)cc12 [Compound 427, (3S,4R)-3-((2-(5,7-difluoro-2-(4-fluorophenyl)-1H-indol-3-yl)ethyl)amino)-4-hydroxypyrrolidin-2-one] |
| > 1000 | O=C(NCCc1c(-c2ccc(F)cc2)[nH]c2c(F)cc(F)cc12)N[C@@H]1CC[C@H](O)C1 [Compound 272] |
| > 1000 | O=C(NCCc1c(-c2ccc(F)cc2)[nH]c2c(F)cc(F)cc12)NCC1CCOCC1 [Compound 291] |
| > 1000 | O=C(NCCc1c(-c2ccc(F)cc2)[nH]c2c(F)cc(F)cc12)c1cccnc1 [Compound 401] |
| > 1000 | O=C(NCCc1c(-c2ccc(F)cc2)[nH]c2c(F)cc(F)cc12)c1ccnnc1 [Compound 399] |
| 250 to 1000 | O=C(CCc1c(-c2ccc(F)cc2)[nH]c2c(F)cc(Cl)cc12)NC(CO)CO [Compound 212] |
| < 250 | O=C(NCCc1c(-c2ccc(F)cc2)[nH]c2c(F)cc(F)cc12)N[C@H](CO)C(F)(F)F [Compound 262] |
| > 1000 | OC1(CC#Cc2c(-c3ccc(F)cc3)[nH]c3c(F)cc(F)cc23)COC1 [Compound 524, 3-[3-[5,7-difluoro-2-(4-fluorophenyl)-1H-indol-3-yl]prop-2-ynyl]oxetan-3-ol] |
| > 1000 | O=C(NCCc1c(-c2ccc(F)cc2)[nH]c2c(F)cc(F)cc12)c1cn[nH]c1 [Compound 352] |
| > 1000 | O=C(NCCc1c(-c2ccc(F)cc2)[nH]c2c(F)cc(F)cc12)c1ccnc(C(F)(F)F)c1 [Compound 369] |
| 250 to 1000 | Cn1ccnc1C(=O)NCCc1c(-c2ccc(F)cc2)[nH]c2c(F)cc(F)cc12 [Compound 388] |

| IC50 [nM] | SMILES |
| --- | --- |
| < 250 | O=C(/C=C/c1c(-c2ccc(F)cc2)[nH]c2c(F)cc(F)cc12)N[C@H]1CCNC1=O [Compound 519, (E)-3-[5,7-difluoro-2-(4-fluorophenyl)-1H-indol-3-yl]-N-[(3S)-2-oxopyrrolidin-3-yl]prop-2-enamide] |
| > 1000 | Cc1cnc(CNC(=O)OCCc2c(-c3ccc(F)cc3)[nH]c3c(F)cc(F)cc23)o1 [Compound 487] |
| > 1000 | O=C(CCc1c(-c2ccc(F)cc2)[nH]c2c(F)cc(Cl)cc12)N[C@H](CO)C(F)(F)F [Compound 205] |
| > 1000 | O=C(NCCc1c(-c2ccc(F)cc2)[nH]c2c(F)cc(F)cc12)c1ccc(O)nc1 [Compound 334] |
| > 1000 | Cc1cc(F)c2[nH]c(-c3ccc(F)cc3)c(CCC(=O)NC(CO)CO)c2c1 [Compound 219] |
| 250 to 1000 | CC1(CO)CCN1C(=O)CCc1c(-c2ccc(F)cc2)[nH]c2c(F)cc(F)cc12 (stereo not drawn) [Compound 110] |
| > 1000 | O=S(=O)(CCO)NCCc1c(-c2ccc(F)cc2)[nH]c2c(F)cc(F)cc12 [Compound 422] |
| < 250 | CC(CO)NC(=O)OCCc1c(-c2ccc(F)cc2)[nH]c2c(F)cc(F)cc12 (racemic) [Compound 439] |
| > 1000 | CN(C)S(=O)(=O)NCCc1c(-c2ccc(F)cc2)[nH]c2c(F)cc(F)cc12 [Compound 425] |
| > 1000 | O=C(NCCc1c(-c2ccc(F)cc2)[nH]c2c(F)cc(F)cc12)c1ncccn1 [Compound 397] |
| > 1000 | O=C(NCCc1c(-c2ccc(F)cc2)[nH]c2c(F)cc(F)cc12)N1CCC[C@H]1CO [Compound 296] |
| > 1000 | C[C@H](O)CNC(=O)NCCc1c(-c2ccc(F)cc2)[nH]c2c(F)cc(F)cc12 [Compound 284] |
| 250 to 1000 | N#CC(CO)NC(=O)CCc1c(-c2ccc(F)cc2)[nH]c2c(F)cc(Cl)cc12 (stereo not drawn) [Compound 198] |
| 250 to 1000 | O=C(NC(CO)CF)OCCc1c(-c2ccc(F)cc2)[nH]c2c(F)cc(F)cc12 (stereo not drawn) [Compound 471] |
| < 250 | NC(=O)[C@@H](CO)NC(=O)OCCc1c(-c2ccc(F)cc2)[nH]c2c(F)cc(F)cc12 [Compound 447] |
| > 1000 | CNC(=O)CC(=O)NCCc1c(-c2ccc(F)cc2)[nH]c2c(F)cc(F)cc12 [Compound 345] |
| > 1000 | CN(C[C@H](O)CO)C(=O)OCCc1c(-c2ccc(F)cc2)[nH]c2c(F)cc(F)cc12 [Compound 482] |
| > 1000 | Nc1ncc(C(=O)NCCc2c(-c3ccc(F)cc3)[nH]c3c(F)cc(F)cc23)s1 [Compound 328] |
| > 1000 | O=C1CC(C(=O)NCCc2c(-c3ccc(F)cc3)[nH]c3c(F)cc(F)cc23)CO1 (stereo not drawn) [Compound 383] |
| > 1000 | Cc1cc(F)c2[nH]c(-c3ccc(F)cc3)c(CCC(=O)NC(CO)(CO)CO)c2c1 [Compound 217] |
| > 1000 | O=C(CCN1CCCC1=O)NCCc1c(-c2ccc(F)cc2)[nH]c2c(F)cc(F)cc12 [Compound 370] |

| IC50 [nM] | SMILES |
| --- | --- |
| > 1000 | CC(=O)NCCc1c(-c2ccc(F)cc2)[nH]c2c(F)cc(F)cc12 [Compound 418, N-[2-[5,7-difluoro-2-(4-fluorophenyl)-1H-indol-3-yl]ethyl]acetamide] |
| 250 to 1000 | O=C(NCCc1c(-c2ccc(F)cc2)[nH]c2c(F)cc(F)cc12)C(O)C1CC1 (stereo not drawn) [Compound 346] |
| > 1000 | O=C1NC(=O)C(CCS(=O)(=O)NCCc2c(-c3ccc(F)cc3)[nH]c3c(F)cc(F)cc23)N1 (stereo not drawn) [Compound 420, N-(2-(5,7-difluoro-2-(4-fluorophenyl)-1H-indol-3-yl)ethyl)-2-(2,5-dioxoimidazolidin-4-yl)ethane-1-sulfonamide] |
| < 250 | COC[C@H](C)NC(=O)OCCc1c(-c2ccc(F)cc2)[nH]c2c(F)cc(F)cc12 [Compound 444] |
| > 1000 | O=C(NCCc1c(-c2ccc(F)cc2)[nH]c2c(F)cc(F)cc12)c1cnc(C(F)(F)F)s1 [Compound 367] |
| > 1000 | O=C(NCCc1c(-c2ccc(F)cc2)[nH]c2c(F)cc(F)cc12)c1c[nH]nc1C(F)(F)F [Compound 316] |
| > 1000 | O=C1NCCCC1C(=O)NCCc1c(-c2ccc(F)cc2)[nH]c2c(F)cc(F)cc12 (stereo not drawn) [Compound 330] |
| > 1000 | O=C(NCCc1c(-c2ccc(F)cc2)[nH]c2c(F)cc(F)cc12)NCC1CCCOC1 (stereo not drawn) [Compound 293] |
| > 1000 | Cn1ccnc1S(=O)(=O)NCCc1c(-c2ccc(F)cc2)[nH]c2c(F)cc(F)cc12 [Compound 424] |
| > 1000 | O=C(CNC(=O)NCCc1c(-c2ccc(F)cc2)[nH]c2c(F)cc(F)cc12)NO [Compound 260] |
| 250 to 1000 | NC1(C(=O)NCCc2c(-c3ccc(F)cc3)[nH]c3c(F)cc(F)cc23)CCC1 [Compound 349] |
| > 1000 | CC(O)CCNC(=O)OCCc1c(-c2ccc(F)cc2)[nH]c2c(F)cc(F)cc12 (stereo not drawn) [Compound 483] |
| > 1000 | O=C1N[C@@H](C(=O)NCCc2c(-c3ccc(F)cc3)[nH]c3c(F)cc(F)cc23)CO1 [Compound 306, (4R)—N-[2-[5,7-difluoro-2-(4-fluorophenyl)-1H-indol-3-yl]ethyl]-2-oxo-oxazolidine-4-carboxamide] |
| 250 to 1000 | O=C(NCCc1c(-c2ccc(F)cc2)[nH]c2c(F)cc(F)cc12)C1(F)CCC1 [Compound 406] |
| 250 to 1000 | CC(NC(=O)OCCc1c(-c2ccc(F)cc2)[nH]c2c(F)cc(F)cc12)C(N)=O (racemic) [Compound 460] |
| > 1000 | O=C(NCCc1c(-c2ccc(F)cc2)[nH]c2c(F)cc(F)cc12)c1cc[nH]n1 [Compound 351] |
| > 1000 | CNC(=O)C(=O)NCCc1c(-c2ccc(F)cc2)[nH]c2c(F)cc(F)cc12 [Compound 359] |
| 250 to 1000 | CC(C)C(CO)NC(=O)OCCc1c(-c2ccc(F)cc2)[nH]c2c(F)cc(F)cc12 (stereo not drawn) [Compound 467] |
| > 1000 | O=C(NCCc1c(-c2ccc(F)cc2)[nH]c2c(F)cc(F)cc12)c1ccccn1 [Compound 403] |
| > 1000 | CC(=O)NCC(=O)NCCc1c(-c2ccc(F)cc2)[nH]c2c(F)cc(F)cc12 [Compound 344] |
| < 250 | Cc1cc(F)c2[nH]c(-c3ccc(F)cc3)c(CCC(=O)N[C@@H](CO)C(F)(F)F)c2c1 [Compound 214] |
